Test results from patent US20100267561A1, “HERBICIDAL PYRIDAZINONE DERIVATIVES” (priority 2007, published 2010).

How the values were obtained:
Assay in all cases: Test B pre-/postemergence plant response
Assay type in all cases: in vivo
kochia (Kochia scoparia) = details: Preemergence; for Kochia plant response rating: 8 g ai/ha
In short: (§1)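 Visual scoring from 0 (no effect) to 100 (complete control) against untreated controls was done 13 to 15 days after greenhouse treatment. Chemicals were formulated in a surfactant-containing non-phytotoxic solvent and applied to soil preemergence or to 1- to 4-leaf (2-18 cm) plants postemergence.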

[1] = test system: blackgrass (Alopecurus myosuroides); details: Preemergence; for Blackgrass plant response rating: 8 g ai/ha
In short: as §1

[2] = test system: yellow nutsedge (Cyperus esculentus); details: Preemergence; for Nutsedge, Yellow plant response rating: 8 g ai/ha
In short: as §1

[3] = test system: cocklebur (Xanthium strumarium); details: Preemergence; for Cocklebur plant response rating: 8 g ai/ha
In short: as §1

[4] = test system: large crabgrass (Digitaria sanguinalis); details: Preemergence; for Crabgrass, Large plant response rating: 8 g ai/ha
In short: as §1

[5] = test system: johnsongrass (Sorghum halepense); details: Preemergence; for Johnsongrass plant response rating: 8 g ai/ha
In short: as §1

corn (Zea mays) = details: Preemergence
In short: as §1

[6] = test system: goosegrass (Eleusine indica); details: Preemergence; for Goosegrass plant response rating: 8 g ai/ha
In short: as §1

[7] = test system: catchweed bedstraw (Galium aparine); details: Preemergence; for Galium plant response rating: 8 g ai/ha
In short: as §1

[8] = test system: Russian thistle (Salsola iberica); details: Preemergence; for Russian Thistle plant response rating: 8 g ai/ha
In short: as §1

[9] = test system: velvetleaf (Abutilon theophrasti); details: Preemergence; for Velvetleaf plant response rating: 8 g ai/ha
In short: as §1

[10] = test system: common ragweed (Ambrosia elation); details: Preemergence; for Ragweed plant response rating: 8 g ai/ha
In short: as §1

wild oat (Avena fatua) = details: Preemergence
In short: as §1

[11] = test system: woolly cupgrass (Eriochloa villosa); details: Preemergence; for Cupgrass, Woolly plant response rating: 8 g ai/ha
In short: as §1

[12] = 16 g ai/ha, scale 0 to 100 (0 no effect, 100 complete control)
[13] = 31 g ai/ha, 0 to 100 scale, 0 no effect, 100 complete control

Cc1cn(-c2ccc(Cl)cc2)nc1-c1c(O)cnn(C)c1=O [Compound 30, 4-[1-(4-chlorophenyl)-4-methyl-1H-pyrazol-3-yl]-5-hydroxy-2-methyl-3(2H)-pyridazinone]
50%: pest or weed control at 16 g/ha ([5]; Sorghum halepense, pre-emergence, 16 g ai/ha, scale 0 to 100 (0 no effect, 100 complete control), read-out: Plant response rating, Johnsongrass) | pest or weed control at 31 g/ha ([5]; Sorghum halepense, pre-emergence, 31 g ai/ha, 0 to 100 scale, 0 no effect, 100 complete control, read-out: Plant response rating, Johnsongrass) | pest or weed control at 16 g/ha (wild oat (Avena fatua); Avena fatua, pre-emergence, 16 g ai/ha, scale 0 to 100 (0 no effect, 100 complete control), read-out: Plant response rating, Oat, Wild) | pest or weed control at 31 g/ha (wild oat (Avena fatua); Avena fatua, pre-emergence, 31 g ai/ha, 0 to 100 scale, 0 no effect, 100 complete control, read-out: Plant response rating, Oat, Wild)
75%: pest or weed control at 16 g/ha ([11]; Eriochloa villosa, pre-emergence, 16 g ai/ha, scale 0 to 100 (0 no effect, 100 complete control), read-out: Plant response rating, Cupgrass, Woolly)
98%: pest or weed control at 62 g/ha ([5]; Sorghum halepense, pre-emergence, 62 g ai/ha, scale 0 to 100, read-out: Plant response rating, Johnsongrass) | pest or weed control at 31 g/ha ([11]; Eriochloa villosa, pre-emergence, 31 g ai/ha, 0 to 100 scale, 0 no effect, 100 complete control, read-out: Plant response rating, Cupgrass, Woolly)
5%: Corn plant response rating (crop injury, 0 = no effect, 100 = complete kill) at 16 g/ha (corn (Zea mays); Zea mays, pre-emergence, 16 g ai/ha, scale 0 to 100 (0 no effect, 100 complete control)) | Corn plant response rating (crop injury, 0 = no effect, 100 = complete kill) at 31 g/ha (corn (Zea mays); Zea mays, pre-emergence, 31 g ai/ha, 0 to 100 scale, 0 no effect, 100 complete control) | Corn plant response rating (crop injury, 0 = no effect, 100 = complete kill) at 62 g/ha (corn (Zea mays); Zea mays, pre-emergence, 62 g ai/ha, scale 0 to 100)
80%: pest or weed control at 16 g/ha ([6]; Eleusine indica, pre-emergence, 16 g ai/ha, scale 0 to 100 (0 no effect, 100 complete control), read-out: Plant response rating, Goosegrass) | pest or weed control at 62 g/ha (wild oat (Avena fatua); Avena fatua, pre-emergence, 62 g ai/ha, scale 0 to 100, read-out: Plant response rating, Oat, Wild)
80: Crabgrass, Large plant response rating ([4]; scale 0 to 100) | Goosegrass plant response rating ([6]; scale 0 to 100)
60%: pest or weed control at 16 g/ha ([1]; Alopecurus myosuroides, pre-emergence, 16 g ai/ha, scale 0 to 100 (0 no effect, 100 complete control), read-out: Plant response rating, Blackgrass)
100%: pest or weed control at 31 g/ha ([1]; Alopecurus myosuroides, pre-emergence, 31 g ai/ha, 0 to 100 scale, 0 no effect, 100 complete control, read-out: Plant response rating, Blackgrass) | pest or weed control at 62 g/ha ([1]; Alopecurus myosuroides, pre-emergence, 62 g ai/ha, scale 0 to 100, read-out: Plant response rating, Blackgrass) | pest or weed control at 31 g/ha ([4]; Digitaria sanguinalis, pre-emergence, 31 g ai/ha, 0 to 100 scale, 0 no effect, 100 complete control, read-out: Plant response rating, Crabgrass, Large) | pest or weed control at 62 g/ha ([4]; Digitaria sanguinalis, pre-emergence, 62 g ai/ha, scale 0 to 100, read-out: Plant response rating, Crabgrass, Large) | pest or weed control at 31 g/ha ([6]; Eleusine indica, pre-emergence, 31 g ai/ha, 0 to 100 scale, 0 no effect, 100 complete control, read-out: Plant response rating, Goosegrass) | pest or weed control at 62 g/ha ([6]; Eleusine indica, pre-emergence, 62 g ai/ha, scale 0 to 100, read-out: Plant response rating, Goosegrass) | pest or weed control at 62 g/ha ([11]; Eriochloa villosa, pre-emergence, 62 g ai/ha, scale 0 to 100, read-out: Plant response rating, Cupgrass, Woolly)
90%: pest or weed control at 16 g/ha ([4]; Digitaria sanguinalis, pre-emergence, 16 g ai/ha, scale 0 to 100 (0 no effect, 100 complete control), read-out: Plant response rating, Crabgrass, Large)
50: Oat, Wild plant response rating (wild oat (Avena fatua); 8 g ai/ha, scale 0 to 100) | Cupgrass, Woolly plant response rating ([11]; scale 0 to 100)
0%: pest or weed control at 16 g/ha ([2]; Cyperus, pre-emergence, 16 g ai/ha, scale 0 to 100 (0 no effect, 100 complete control), read-out: Plant response rating, Nutsedge, Yellow) | pest or weed control at 31 g/ha ([2]; Cyperus, pre-emergence, 31 g ai/ha, 0 to 100 scale, 0 no effect, 100 complete control, read-out: Plant response rating, Nutsedge, Yellow) | pest or weed control at 62 g/ha ([2]; Cyperus, pre-emergence, 62 g ai/ha, scale 0 to 100, read-out: Plant response rating, Nutsedge, Yellow) | pest or weed control at 16 g/ha ([3]; Xanthium strumarium, pre-emergence, 16 g ai/ha, scale 0 to 100 (0 no effect, 100 complete control), read-out: Plant response rating, Cocklebur) | pest or weed control at 31 g/ha ([3]; Xanthium strumarium, pre-emergence, 31 g ai/ha, 0 to 100 scale, 0 no effect, 100 complete control, read-out: Plant response rating, Cocklebur) | pest or weed control at 62 g/ha ([3]; Xanthium strumarium, pre-emergence, 62 g ai/ha, scale 0 to 100, read-out: Plant response rating, Cocklebur) | pest or weed control at 16 g/ha ([7]; Galium aparine, pre-emergence, 16 g ai/ha, scale 0 to 100 (0 no effect, 100 complete control), read-out: Plant response rating, Galium) | pest or weed control at 31 g/ha ([7]; Galium aparine, pre-emergence, 31 g ai/ha, 0 to 100 scale, 0 no effect, 100 complete control, read-out: Plant response rating, Galium) | pest or weed control at 62 g/ha ([7]; Galium aparine, pre-emergence, 62 g ai/ha, scale 0 to 100, read-out: Plant response rating, Galium) | pest or weed control at 16 g/ha ([9]; Abutilon theophrasti, pre-emergence, 16 g ai/ha, scale 0 to 100 (0 no effect, 100 complete control), read-out: Plant response rating, Velvetleaf) | pest or weed control at 31 g/ha ([9]; Abutilon theophrasti, pre-emergence, 31 g ai/ha, 0 to 100 scale, 0 no effect, 100 complete control, read-out: Plant response rating, Velvetleaf) | pest or weed control at 62 g/ha ([9]; Abutilon theophrasti, pre-emergence, 62 g ai/ha, scale 0 to 100, read-out: Plant response rating, Velvetleaf) | pest or weed control at 16 g/ha ([10]; Ambrosia, pre-emergence, 16 g ai/ha, scale 0 to 100 (0 no effect, 100 complete control), read-out: Plant response rating, Ragweed) | pest or weed control at 31 g/ha ([10]; Ambrosia, pre-emergence, 31 g ai/ha, 0 to 100 scale, 0 no effect, 100 complete control, read-out: Plant response rating, Ragweed) | pest or weed control at 62 g/ha ([10]; Ambrosia, pre-emergence, 62 g ai/ha, scale 0 to 100, read-out: Plant response rating, Ragweed)
0: Plant response rating, Kochia (kochia (Kochia scoparia); [12]) | Plant response rating, Kochia (kochia (Kochia scoparia); [13]) | Plant response rating, Kochia (kochia (Kochia scoparia); 62 g ai/ha, scale 0 to 100) | Kochia plant response rating (kochia (Kochia scoparia); scale 0 to 100) | Blackgrass plant response rating ([1]; scale 0 to 100) | Nutsedge, Yellow plant response rating ([2]; scale 0 to 100) | Cocklebur plant response rating ([3]; scale 0 to 100) | Johnsongrass plant response rating ([5]; scale 0 to 100) | Corn plant response rating (corn (Zea mays); 8 g ai/ha, scale 0 to 100) | Galium plant response rating ([7]; scale 0 to 100) | Plant response rating, Russian Thistle [8, 12] | Plant response rating, Russian Thistle [8, 13] | Plant response rating, Russian Thistle ([8]; 62 g ai/ha, scale 0 to 100) | Russian Thistle plant response rating ([8]; scale 0 to 100) | Velvetleaf plant response rating ([9]; scale 0 to 100) | Ragweed plant response rating ([10]; scale 0 to 100)

Cn1ncc(O)c(-c2nn(-c3ccc(Cl)cc3)cc2Br)c1=O [Compound 31]
60: Plant response rating, Johnsongrass [5, 12] | Plant response rating, Corn (corn (Zea mays); [13])
85: Goosegrass plant response rating ([6]; scale 0 to 100)
80: Blackgrass plant response rating ([1]; scale 0 to 100) | Crabgrass, Large plant response rating ([4]; scale 0 to 100)
90: Plant response rating, Blackgrass [1, 12] | Plant response rating, Crabgrass, Large [4, 12] | Plant response rating, Corn (corn (Zea mays); 62 g ai/ha, scale 0 to 100) | Plant response rating, Goosegrass [6, 12] | Plant response rating, Oat, Wild (wild oat (Avena fatua); 62 g ai/ha, scale 0 to 100)
70: Plant response rating, Oat, Wild (wild oat (Avena fatua); [13]) | Cupgrass, Woolly plant response rating ([11]; scale 0 to 100)
0: Plant response rating, Kochia (kochia (Kochia scoparia); [12]) | Plant response rating, Kochia (kochia (Kochia scoparia); [13]) | Plant response rating, Kochia (kochia (Kochia scoparia); 62 g ai/ha, scale 0 to 100) | Kochia plant response rating (kochia (Kochia scoparia); scale 0 to 100) | Plant response rating, Nutsedge, Yellow [2, 12] | Plant response rating, Nutsedge, Yellow [2, 13] | Plant response rating, Nutsedge, Yellow ([2]; 62 g ai/ha, scale 0 to 100) | Nutsedge, Yellow plant response rating ([2]; scale 0 to 100) | Plant response rating, Cocklebur [3, 12] | Plant response rating, Cocklebur [3, 13] | Plant response rating, Cocklebur ([3]; 62 g ai/ha, scale 0 to 100) | Cocklebur plant response rating ([3]; scale 0 to 100) | Plant response rating, Corn (corn (Zea mays); [12]) | Plant response rating, Galium [7, 12] | Plant response rating, Galium [7, 13] | Galium plant response rating ([7]; scale 0 to 100) | Plant response rating, Russian Thistle [8, 12] | Plant response rating, Russian Thistle [8, 13] | Plant response rating, Russian Thistle ([8]; 62 g ai/ha, scale 0 to 100) | Russian Thistle plant response rating ([8]; scale 0 to 100) | Plant response rating, Velvetleaf [9, 12] | Plant response rating, Velvetleaf [9, 13] | Plant response rating, Velvetleaf ([9]; 62 g ai/ha, scale 0 to 100) | Velvetleaf plant response rating ([9]; scale 0 to 100) | Plant response rating, Ragweed [10, 12] | Plant response rating, Ragweed [10, 13] | Plant response rating, Ragweed ([10]; 62 g ai/ha, scale 0 to 100) | Ragweed plant response rating ([10]; scale 0 to 100)
45: Plant response rating, Oat, Wild (wild oat (Avena fatua); [12])
55: Johnsongrass plant response rating ([5]; scale 0 to 100)
50: Plant response rating, Galium ([7]; 62 g ai/ha, scale 0 to 100)
100: Plant response rating, Blackgrass ([1]; 62 g ai/ha, scale 0 to 100) | Plant response rating, Crabgrass, Large [4, 13] | Plant response rating, Crabgrass, Large ([4]; 62 g ai/ha, scale 0 to 100) | Plant response rating, Goosegrass [6, 13] | Plant response rating, Goosegrass ([6]; 62 g ai/ha, scale 0 to 100) | Plant response rating, Cupgrass, Woolly [11, 13] | Plant response rating, Cupgrass, Woolly ([11]; 62 g ai/ha, scale 0 to 100)
98: Plant response rating, Blackgrass [1, 13] | Plant response rating, Cupgrass, Woolly [11, 12]
75: Plant response rating, Johnsongrass [5, 13] | Plant response rating, Johnsongrass ([5]; 62 g ai/ha, scale 0 to 100)
